Results on one compound are retold here after patent US8710064B2, “2-aryl-4-quinazolinones and their pharmaceutical compositions” (China Medical University, priority 2011, dated 2014).

For test [1], the system named is CH27. Kind of test: trypan blue exclusion assay, CH27 cells. The class given is cell-based. The note with it: CH27 human lung squamous carcinoma. The protocol: CH27 cells (Human lung squamous carcinoma) were grown in monolayer culture in Dulbecco's modified Eagle's medium (DMEM; Life Technologies, Rockville, Md., USA) containing 5% FBS (HyClone, Logan, Utah, USA), 100 U/ml penicillin, […] streptomycin (Gibco BRL, Rockville, Md., USA) and 2 mM glutamine (Merck, Darmstadt, Germany).
(§1) Cell viability was also determined by trypan-blue exclusion assay. Cells were seeded in 6-well plates (2×10^4/well) for trypan blue exclusion assay, and incubated for 24 hours at 37° C. Culture medium containing test compound or DMSO (0.006%) was added to each well, and cells were incubated at 37° C. At indicated time points (0, 24, 48, 72 and 96 hr), cells were suspended with 0.05% trypsin-EDTA, and stained with trypan-blue dye (0.4%) (Sigma). The cell viability was evaluated by the percentage of death relative to the total cell, and cell growth curve was determined by number of live cells relative to the total number of cells.
(§2) The anti-proliferation effects of Compounds 17-31 on M21, CH27, H460, Hep3B and HSC-3 cells were evaluated by the trypan blue exclusion assay.

Test [2] has as its system M21. Kind of test: trypan blue exclusion assay, M21 cells. The class given is cell-based. The note with it: Homo sapiens. The protocol:
M21 cell line (human malignant melanoma) was provided by Dr. Feng-Yao Tang (China Medical University, Taiwan). Cells were grown in monolayer culture in RPMI-1640 medium, Eagle's minimum essential medium or Dulbecco's modified Eagles medium (Invitrogen Corporation, Grand Island, N.Y., USA) containing 10% fetal bovine serum (FBS; HyClone, Logan, Utah, USA), 100 U/ml penicillin and 100 μg/ml streptomycin (Gibco BRL, Rockville, Md., USA).
as §1, §2

Test [3] concerns U87 human glioma cell lines. The test can be described thus: MTS cell viability assay, U87 glioma cells. The class given is cell-based. The note with it: 48 hours, mean±SEM, n=3. The protocol: The human glioma cell lines U87, U251, T98G, U373, and rat glioma cell line RT2 provided by Dr. Michael Hsiao (Genomics Research Center, Academia Sinica, Taiwan) were cultured in Dulbecco's Modified Eagle medium (DMEM) (Caisson) supplemented with 10% fetal bovine serum (FBS) (Sigma-Aldrich), 2 mM L-glutamine (Caisson), 100 U/ml penicillin, and 100 μg/ml streptomycin (Caisson). The rat glioma C6 cell line provided by Dr. Shun-Fen Tzeng (National Cheng Kung University, Taiwan) was cultured in DMEM/F12 (Caisson) supplemented with 10% fetal bovine serum, 2 mM L-glutamine, 100 U/ml penicillin, and 100 μg/ml streptomycin. The human normal glia cell line SVGP12, kindly provided by Dr. Michael Hsiao, was cultured in Minimum Essential Medium (MEM) (Invitrogen) supplemented with 10% fetal bovine serum, 2 mM L-glutamine, 100 U/ml penicillin, and […]. Primary glia cells were prepared by surgery. Cerebral cortices without meninges were dissected from postnatal (P0-P2) Sprague-Dawley (SD, NCKU Laboratory Animal Center) rats and dissociated in 0.05% trypsin-EDTA (Biowest) at 37° C. for 10 min. Culture medium was added and pipetted for several times, and supernatant was removed after a centrifugation at 1,000 rpm for 5 minutes. […]
Cell proliferation was determined by MTS (tetrazolium compound, 3-(4,5-dimethylthiazol-2-yl)-5-(3-carboxymethoxyphenyl)-2-(4-sulfophenyl)-2H-tetrazolium) assay (Promega). […] The absorbance of soluble formazan was measured at 490 nm with microplate reader (Molecular device). The cell viability was determined by the percentage of the absorption relative to untreated control. […]
To investigate the effect of 2-aryl-4-quinazolinone in accordance with the present invention on cell proliferation, glioma cell lines were treated with MJ-66, MJ-68, or MJ-78. […] The cell viability of each group was analyzed by MTS assay (mean±SEM, n=3).
On the technique in general: Tetrazolium assays rely on reduction of a dye to a coloured formazan, in cell work by metabolically active cells.

Test [4] relates to HSC-3. The test can be described thus: trypan blue exclusion assay, HSC-3 cells. The class given is cell-based, human. The note with it: HSC-3 human squamous carcinoma; trypan blue exclusion assay. The procedure:
The HSC-3 (human oral squamous cell carcinoma) were cultured in 1:1 Dulbecco's Modified Eagle's Medium (DMEM) and Ham's Nutrient Mixture F-12, containing 10% FBS (HyClone, Logan, Utah, USA), 100 U/ml penicillin, 100 μg/ml streptomycin (Gibco BRL, Rockville, Md., USA) and 2 mM glutamine (Merck, Darmstadt, Germany).
as §1, §2

Read-outs that look alike come from different tables or passages of the source.

By IC50 is commonly meant the concentration needed to halve the response being measured. On to `O=c1[nH]c(-c2cccc3ccccc23)nc2ccc(N3CCCC3)cc12` [Compound 23, 6-(Pyrrolidin-1-yl)-2-(naphthalen-1-yl)quinazolin-4-one], for which the IC50 in test [1] was 0.053 µM; in test [2] (M21, in vitro, read-out: IC50, growth of human malignant melanoma cells), around 0.033 µM; in test [2] (M21 skin cancer, trypan blue exclusion assay, read-out: IC50 M21) it was 0.033 µM; in test [3], 0.054 ± 0.01 µM; in test [4], 0.041 µM.
